Measured values published in patent US20070066516A1, “Compounds comprising cyclized somatostatin receptor binding peptides” (priority 2005, published 2007).
Where a SMILES comes first, the peptide text is derived from it. Side-chain parts run from the residue outwards. [ ]: non-standard residue; d: D form. The star is where a group is joined. X1 = CC(C(=O)*)N1CCN(CC(=O)O)CCN(CC(=O)O)CCN(CC(=O)O)CC1; Tpi = O=C(O)[C@@H]1Cc2c([nH]c3ccccc23)CN1; Dip = N[C@H](C(=O)O)C(c1ccccc1)c1ccccc1; Phe(4-F) = N[C@@H](Cc1ccc(F)cc1)C(=O)O; 1Nal = N[C@@H](Cc1cccc2ccccc12)C(=O)O; 2Nal = N[C@@H](Cc1ccc2ccccc2c1)C(=O)O; Ala(cPr) = N[C@@H](CC1CC1)C(=O)O; NMeF = CN[C@@H](Cc1ccccc1)C(=O)O; 4Pal = N[C@@H](Cc1ccncc1)C(=O)O; Thz = O=C(O)[C@@H]1CSCN1; Dap = NC[C@H](N)C(=O)O

B1: P2265 (peptide)
peptide: cyclo(Y[dW]KTM[NMeF])
SMILES: CSCC[C@@H]1NC(=O)[C@H]([C@@H](C)O)NC(=O)[C@H](CCCCN)NC(=O)[C@@H](Cc2c[nH]c3ccccc23)NC(=O)[C@H](Cc2ccc(O)cc2)NC(=O)[C@H](Cc2ccccc2)N(C)C1=O
notes: Cyclic hexapeptide; also called cyclo[Tyr-DTrp-Lys-Thr-Met-(NMe)Phe]
B2: P2292 (peptide)
peptide: cyclo([Phe(4-F)][dW]KTM[NMeF])
SMILES: CSCC[C@@H]1NC(=O)[C@H]([C@@H](C)O)NC(=O)[C@H](CCCCN)NC(=O)[C@@H](Cc2c[nH]c3ccccc23)NC(=O)[C@H](Cc2ccc(F)cc2)NC(=O)[C@H](Cc2ccccc2)N(C)C1=O
notes: Cyclic hexapeptide; also called cyclo[Phe(4-F)-DTrp-Lys-Thr-Met-(N-Me)Phe]
B3: P2297 (peptide)
peptide: cyclo([Thz][dW]KTMF)
SMILES: CSCC[C@@H]1NC(=O)[C@H]([C@@H](C)O)NC(=O)[C@H](CCCCN)NC(=O)[C@@H](Cc2c[nH]c3ccccc23)NC(=O)[C@@H]2CSCN2C(=O)[C@H](Cc2ccccc2)NC1=O
notes: Cyclic hexapeptide; also called cyclo[ThioPro-DTrp-Lys-Thr-Met-Phe]
B4: P2266 (peptide)
peptide: cyclo(Y[dW]KVM[NMeF])
SMILES: CSCC[C@@H]1NC(=O)[C@H](C(C)C)NC(=O)[C@H](CCCCN)NC(=O)[C@@H](Cc2c[nH]c3ccccc23)NC(=O)[C@H](Cc2ccc(O)cc2)NC(=O)[C@H](Cc2ccccc2)N(C)C1=O
notes: Cyclic hexapeptide; also called cyclo[Tyr-DTrp-Lys-Val-Met-(NMe)Phe]
B5: P2326 (peptide)
peptide: cyclo([Dip][dW]KTM[NMeF])
SMILES: CSCC[C@@H]1NC(=O)[C@H]([C@@H](C)O)NC(=O)[C@H](CCCCN)NC(=O)[C@@H](Cc2c[nH]c3ccccc23)NC(=O)[C@H](C(c2ccccc2)c2ccccc2)NC(=O)[C@H](Cc2ccccc2)N(C)C1=O
notes: Cyclic hexapeptide; also called cyclo[DiphenylAla-DTrp-Lys-Thr-Met-(N-Me)Phe]
B6: P2278 (peptide)
peptide: cyclo([1Nal][dW]KTM[NMeF])
modifications: also: tested peptides comprised a lanthanide chelation unit, not shown
notes: also called cyclo[(1)Nal-DTrp-Lys-Thr-Met-(NMe)Phe]
B7: P2329 (peptide)
peptide: cyclo([1Nal][dW]KVM[NMeF])
SMILES: CSCC[C@@H]1NC(=O)[C@H](C(C)C)NC(=O)[C@H](CCCCN)NC(=O)[C@@H](Cc2c[nH]c3ccccc23)NC(=O)[C@H](Cc2cccc3ccccc23)NC(=O)[C@H](Cc2ccccc2)N(C)C1=O
notes: Cyclic hexapeptide; also called cyclo[1Nal-DTrp-Lys-Val-Met-(N-Me)Phe]
B8: P2279 (peptide)
peptide: cyclo([2Nal][dW]KTM[NMeF])
SMILES: CSCC[C@@H]1NC(=O)[C@H]([C@@H](C)O)NC(=O)[C@H](CCCCN)NC(=O)[C@@H](Cc2c[nH]c3ccccc23)NC(=O)[C@H](Cc2ccc3ccccc3c2)NC(=O)[C@H](Cc2ccccc2)N(C)C1=O
notes: Cyclic hexapeptide; also called cyclo[2Nal-Dtrp-Lys-Thr-Met-(N-Me)Phe]
B9: P2281 (peptide)
peptide: cyclo([4Pal][dW]KTM[NMeF])
SMILES: CSCC[C@@H]1NC(=O)[C@H]([C@@H](C)O)NC(=O)[C@H](CCCCN)NC(=O)[C@@H](Cc2c[nH]c3ccccc23)NC(=O)[C@H](Cc2ccncc2)NC(=O)[C@H](Cc2ccccc2)N(C)C1=O
notes: Cyclic hexapeptide; also called cyclo[(4)Pal-DTrp-Lys-Thr-Met-(NMe)Phe]

Legend:
SSTR2 = SSTR2 (Homo sapiens, UniProt P30874); assay: Radioligand binding assay on membranes of CHO-K1 cells expressing SSTR2; settings: membranes from CHO-K1 cells stably expressing cloned somatostatin receptor 2
Chain of SSTR2 (P30874 whole entry): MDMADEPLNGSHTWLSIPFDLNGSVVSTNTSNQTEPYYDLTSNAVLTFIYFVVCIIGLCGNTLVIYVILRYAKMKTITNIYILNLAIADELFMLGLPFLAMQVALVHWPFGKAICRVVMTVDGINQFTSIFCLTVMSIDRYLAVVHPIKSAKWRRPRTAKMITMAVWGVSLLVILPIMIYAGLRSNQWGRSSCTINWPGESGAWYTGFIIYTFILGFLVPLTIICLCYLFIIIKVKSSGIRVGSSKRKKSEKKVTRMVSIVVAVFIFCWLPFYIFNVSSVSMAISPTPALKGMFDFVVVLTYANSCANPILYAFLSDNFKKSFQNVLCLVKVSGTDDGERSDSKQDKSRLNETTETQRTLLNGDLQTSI
Experimental: (§1) Radiolabeling binding assays were carried out as described in the prior art like, e.g. in Gazal S. et al (2002) J. Med. Chem. 45: 1665-1671. The radioligand binding assays were carried out on membranes prepared from CHO-K1 cells stably expressing individually cloned somatostatin receptors 2 or 5 (SSTR2 or SSTR5). Cells were grown for 2 days for almost confluence and were washed and scraped into 50 mM ice-cold Tris-HCl, pH 7.8, containing 1 mM EGTA, 5 mM MgCl2, […], 0.1 mM PMSF, and 0.5 mg/mL aprotinin (buffer A) and were centrifuged at 10,000 rpm for 10 min at 4° C. (in Sorvall RC 26 Plus ultracentrifuge, rotor SS-34). The pellet was resuspended in buffer A and homogenized with a Polytron PT 1200 homogenizer (Kinematica AG, Switzerland) (setting 2, 3 strokes 10 s each). The homogenate was then centrifuged at 20 000 rpm for 20 min at 4° C. The pellet was resuspended in buffer A and homogenized using the Polytron homogenizer (setting 2, 3 strokes 5 s each). The protein content was determined by Bradford, and the membrane preparation was diluted in buffer A containing 1 mg/mL bovine serum albumin (BSA) to a final 0.2 or 0.4 mg/mL membrane protein (depending on the specific somatostatin receptor used).
(§2) The radioligand binding assay was performed in 96 well microtiter plates (Maxisorp plates, Nunc, Denmark). Cell membranes ([…] protein) were incubated with the various cyclized peptides indicated in Table 1 & 2, which comprised a lanthanide chelation unit, in a final volume of 250 μL, for 45 min. at room temperature in the presence or absence of competing peptides. Nonspecific binding was defined as the radioactivity remaining bound in the presence of […] somatostatin. At the end of the binding, reaction free radioligand was separated from bound Ligand by rapid filtration through UniFilter GF/C plates preincubated in a solution of 5 g/L polyethyleneimine and 1 g/L BSA. The filtration was performed in Filter-Mate Cell Harvester (Packard Instrument Company, U.S.A.). After filtration, the filters were washed several times with cold buffer A containing 1 mg/mL BSA and allowed to dry overnight at room temperature. Then, bound radioactivity was counted. The binding assays were performed in triplicate wells. Data from radioligand binding were used to generate inhibition curves, and IC50 values were determined for each of the tested peptides. The saturation binding data were analyzed by the method of Scatchard, and IC50 values are expressed as mean±SEM (standard error of the mean).

SSTR5 = SSTR5 (Homo sapiens, UniProt P35346); assay: Radioligand binding assay on membranes of CHO-K1 cells expressing SSTR5; settings: for IC50: membranes from CHO-K1 cells stably expressing cloned somatostatin receptor 5; for Ratio 2/5 in %: ratio of IC50 SSTR2 / IC50 SSTR5 in %
Chain of SSTR5 (P35346 whole entry): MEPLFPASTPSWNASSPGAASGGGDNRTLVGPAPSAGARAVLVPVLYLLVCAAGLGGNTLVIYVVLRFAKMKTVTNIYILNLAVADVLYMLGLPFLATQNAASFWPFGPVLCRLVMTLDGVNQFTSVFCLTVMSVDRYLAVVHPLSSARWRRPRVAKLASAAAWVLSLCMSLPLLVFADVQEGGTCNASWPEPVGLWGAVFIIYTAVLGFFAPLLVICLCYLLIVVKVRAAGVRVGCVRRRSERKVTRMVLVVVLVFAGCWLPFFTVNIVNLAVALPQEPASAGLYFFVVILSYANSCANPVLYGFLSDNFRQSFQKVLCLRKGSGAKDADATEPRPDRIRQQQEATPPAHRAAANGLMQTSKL
Experimental: as §1, §2

somatostatin receptor 5 = biological target: T1, somatostatin receptor 5 (UniProt P35346 1-364, limits assumed); assay: ratio of IC50 on SSTR2 to IC50 on SSTR5 (reference SSTR2), radioligand competition binding on CHO-K1 membranes
T1 construct: whole, on cells; Assayed as membrane preparation of CHO-K1 cells stably expressing the cloned receptor; also called SSTR5; somatostatin receptor subtype 5
T1 sequence (P35346 whole entry): as above

| Molecule | IC50 (SSTR2) | IC50 (SSTR5) | Ratio 2/5 in % (SSTR5) | Ratio 2/5 in % (somatostatin receptor 5) |
| --- | --- | --- | --- | --- |
| C[C@@H](O)[C@@H]1NC(=O)[C@H](CCCCN)NC(=O)[C@@H](Cc2c[nH]c3ccccc23)NC(=O)[C@H](Cc2ccc(O)cc2)NC(=O)[C@H](CCS)N(C)C(=O)[C@H](Cc2ccccc2)NC1=O [P1839, cyclo[Tyr-DTrp-Lys-Thr-Phe-(NMe)hCys], reference compound] | 0.032 nM | 22 nM | 0.15% | – |
| CSCC[C@@H]1NC(=O)[C@H]([C@@H](C)O)NC(=O)[C@H](CCCCN)NC(=O)[C@@H](Cc2c[nH]c3ccccc23)NC(=O)[C@H](Cc2ccc(O)cc2)NC(=O)[C@H](Cc2ccccc2)N(C)C1=O [P2265, cyclo[Tyr-DTrp-Lys-Thr-Met-(NMe)Phe]] (cyclo(Y[dW]KTM[NMeF])) | 0.139 nM | 11.6 nM | 1.2% | – |
| CSCC[C@@H]1NC(=O)[C@H](C(C)C)NC(=O)[C@H](CCCCN)NC(=O)[C@@H](Cc2c[nH]c3ccccc23)NC(=O)[C@H](Cc2ccc(O)cc2)NC(=O)[C@H](Cc2ccccc2)N(C)C1=O [P2266, cyclo[Tyr-DTrp-Lys-Val-Met-(NMe)Phe]] (cyclo(Y[dW]KVM[NMeF])) | 0.256 nM | 8.12 nM | 3.2% | – |
| CSCC[C@@H]1NC(=O)[C@H](CN)NC(=O)[C@H](CCCCN)NC(=O)[C@@H](Cc2c[nH]c3ccccc23)NC(=O)[C@H](Cc2ccc(O)cc2)NC(=O)[C@H](Cc2ccccc2)N(C)C1=O [P2267, cyclo[Tyr-DTrp-Lys-Dpr-Met-(NMe)Phe]] (cyclo(Y[dW]K[Dap]M[NMeF])) | – | – | 1.9% | – |
| CSCC[C@@H]1NC(=O)[C@H]([C@@H](C)O)NC(=O)[C@H](CCCCN)NC(=O)[C@@H](Cc2c[nH]c3ccccc23)NC(=O)[C@H](Cc2ccc(O)cc2)NC(=O)[C@@H]2Cc3c([nH]c4ccccc34)CN2C1=O [P2274, cyclo[Tyr-DTrp-Lys-Thr-Met-Tpi]] (cyclo(Y[dW]KTM[Tpi])) | – | – | 6.1% | – |
| CSCC[C@@H]1NC(=O)[C@H]([C@@H](C)O)NC(=O)[C@H](CCCCN)NC(=O)[C@@H](Cc2c[nH]c3ccccc23)NC(=O)[C@H](Cc2cccc3ccccc23)NC(=O)[C@H](Cc2ccccc2)N(C)C1=O [P2278, cyclo[(1)Nal-DTrp-Lys-Thr-Met-(NMe)Phe]] (cyclo([1Nal][dW]KTM[NMeF])) | 0.444 nM | 1.59 nM | 27.9% | – |
| CSCC[C@@H]1NC(=O)[C@H]([C@@H](C)O)NC(=O)[C@H](CCCCN)NC(=O)[C@@H](Cc2c[nH]c3ccccc23)NC(=O)[C@H](Cc2ccc3ccccc3c2)NC(=O)[C@H](Cc2ccccc2)N(C)C1=O [P2279, cyclo[2Nal-Dtrp-Lys-Thr-Met-(N-Me)Phe]] (cyclo([2Nal][dW]KTM[NMeF])) | 5.58 nM | 15 nM | 37.2% | – |
| CSCC[C@@H]1NC(=O)[C@H]([C@@H](C)O)NC(=O)[C@H](CCCCN)NC(=O)[C@@H](Cc2c[nH]c3ccccc23)NC(=O)[C@H](Cc2ccncc2)NC(=O)[C@H](Cc2ccccc2)N(C)C1=O [P2281, cyclo[(4)Pal-DTrp-Lys-Thr-Met-(NMe)Phe]] (cyclo([4Pal][dW]KTM[NMeF])) | 0.154 nM | 43.3 nM | 0.36% | – |
| CSCC[C@@H]1NC(=O)[C@H]([C@@H](C)O)NC(=O)[C@H](CCCCN)NC(=O)[C@@H](Cc2c[nH]c3ccccc23)NC(=O)[C@H](Cc2ccc(F)cc2)NC(=O)[C@H](Cc2ccccc2)N(C)C1=O [P2292, cyclo[Phe(4-F)-DTrp-Lys-Thr-Met-(N-Me)Phe]] (cyclo([Phe(4-F)][dW]KTM[NMeF])) | 0.152 nM | 7.61 nM | 2.0% | – |
| CSCC[C@@H]1NC(=O)[C@H]([C@@H](C)O)NC(=O)[C@H](CCCCN)NC(=O)[C@@H](Cc2c[nH]c3ccccc23)NC(=O)[C@@H]2CSCN2C(=O)[C@H](Cc2ccccc2)NC1=O [P2297, cyclo[ThioPro-DTrp-Lys-Thr-Met-Phe]] (cyclo([Thz][dW]KTMF)) | 12.8 nM | 34.5 nM | 37.1% | – |
| CSCC[C@@H]1NC(=O)[C@H](CC2CC2)NC(=O)[C@H](CCCCN)NC(=O)[C@@H](Cc2c[nH]c3ccccc23)NC(=O)[C@H](Cc2ccc(O)cc2)NC(=O)[C@H](Cc2ccccc2)N(C)C1=O [P2300, cyclo[Tyr-DTrp-Lys-BAla(cyclopropyl)-Met-(N-Me)Phe]] (cyclo([Ala(cPr)]M[NMeF]Y[dW]K)) | – | – | 0.96% | – |
| CC(C(=O)NCC(=O)NCCCC[C@@H]1NC(=O)[C@H]([C@@H](C)O)NC(=O)[C@H](CCCCN)NC(=O)[C@@H](Cc2c[nH]c3ccccc23)NC(=O)[C@H](Cc2cccc3ccccc23)NC(=O)[C@H](Cc2ccccc2)N(C)C1=O)N1CCN(CC(=O)O)CCN(CC(=O)O)CCN(CC(=O)O)CC1 (stereo partly drawn) [P2323, cyclo[1Nal-DTrp-Lys-Thr-Lys(GlyMeDOTA)-(N-Me)Phe]] (cyclo([1Nal][dW]KTK([Gly-X1])[NMeF])) | – | – | 399.1% | – |
| B1 | – | – | – | 1.2% |
| B2 | – | – | – | 2% |
| B3 | – | – | – | 37.1% |
| B4 | – | – | – | 3.2% |
| B5 | – | – | – | 0.42% |
| B6 | – | – | – | 27.9% |
| B7 | – | – | – | 10.5% |
| B8 | – | – | – | 37.2% |
| B9 | – | – | – | 0.36% |
